Measurements from ChEMBL document CHEMBL1255217, “Bioisosteric replacement leading to biologically active [2.2]paracyclophanes with altered binding profiles for aminergic G-protein-coupled receptors” (J Med Chem, 2010).
Active and inactive are the calls of the source. The rule behind the calls is not given here.

Legend:
[1] = biological target: 5-hydroxytryptamine receptor 2A (Sus scrofa, UniProt P50129); experiment: Displacement of [3H]Ketanserin from 5-HT2 receptor in pig cortex membranes; assay type: cell membranes
Chain of 5-hydroxytryptamine receptor 2A (P50129 whole entry): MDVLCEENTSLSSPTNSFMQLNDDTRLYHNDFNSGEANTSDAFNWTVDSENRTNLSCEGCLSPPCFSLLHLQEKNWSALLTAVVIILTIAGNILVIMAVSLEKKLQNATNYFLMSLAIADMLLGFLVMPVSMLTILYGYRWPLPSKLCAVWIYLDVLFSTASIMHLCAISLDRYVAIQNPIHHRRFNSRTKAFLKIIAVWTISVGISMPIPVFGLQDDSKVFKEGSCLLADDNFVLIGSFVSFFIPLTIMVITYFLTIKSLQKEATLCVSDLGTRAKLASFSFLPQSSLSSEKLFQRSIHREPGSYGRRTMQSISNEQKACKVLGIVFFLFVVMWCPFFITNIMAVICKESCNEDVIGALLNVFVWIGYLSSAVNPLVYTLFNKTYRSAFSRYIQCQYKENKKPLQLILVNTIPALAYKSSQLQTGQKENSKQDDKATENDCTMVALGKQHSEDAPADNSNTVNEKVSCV

[2] = Displacement of [3H]Prazosin from adrenergic alpha1 receptor in pig cerebral cortex homogenates; assay type: tissue-based, Sus scrofa
[3] = biological target: T1, D(4) dopamine receptor (Homo sapiens, UniProt P21917); experiment: Displacement of [3H]Spiperone from human dopamine D4.4 receptor expressed in CHO cells; assay type: cell-based
T1 sequence (P21917 whole entry): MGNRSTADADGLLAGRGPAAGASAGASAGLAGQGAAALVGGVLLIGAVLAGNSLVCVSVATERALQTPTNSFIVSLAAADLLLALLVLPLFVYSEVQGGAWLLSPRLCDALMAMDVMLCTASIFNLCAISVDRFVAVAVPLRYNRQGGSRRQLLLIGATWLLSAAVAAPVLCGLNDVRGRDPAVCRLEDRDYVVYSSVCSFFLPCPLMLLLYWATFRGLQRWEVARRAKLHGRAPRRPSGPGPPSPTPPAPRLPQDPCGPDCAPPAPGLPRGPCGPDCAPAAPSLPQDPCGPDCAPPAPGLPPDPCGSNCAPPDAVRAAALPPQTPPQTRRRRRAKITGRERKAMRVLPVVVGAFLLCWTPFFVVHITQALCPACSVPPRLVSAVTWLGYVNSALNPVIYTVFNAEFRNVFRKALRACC

[4] = biological target: T2, D(2) dopamine receptor (Homo sapiens, UniProt P14416); experiment: Displacement of [3H]Spiperone from human dopamine D2 short receptor expressed in CHO cells; assay type: cell-based
T2 sequence (P14416 whole entry): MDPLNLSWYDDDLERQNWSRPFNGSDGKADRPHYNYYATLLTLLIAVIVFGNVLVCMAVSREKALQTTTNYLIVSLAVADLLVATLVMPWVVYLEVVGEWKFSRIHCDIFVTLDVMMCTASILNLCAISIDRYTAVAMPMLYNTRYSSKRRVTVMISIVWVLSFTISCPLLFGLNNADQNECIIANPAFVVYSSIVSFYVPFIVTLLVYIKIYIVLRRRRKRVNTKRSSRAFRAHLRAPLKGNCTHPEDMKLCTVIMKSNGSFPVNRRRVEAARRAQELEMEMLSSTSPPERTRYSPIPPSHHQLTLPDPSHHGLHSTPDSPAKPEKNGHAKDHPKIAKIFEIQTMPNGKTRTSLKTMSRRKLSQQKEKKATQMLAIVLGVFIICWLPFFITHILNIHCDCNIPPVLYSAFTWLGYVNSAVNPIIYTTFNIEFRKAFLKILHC

[5] = biological target: T3, D(3) dopamine receptor (Homo sapiens, UniProt P35462); experiment: Displacement of [3H]Spiperone from human dopamine D3 receptor expressed in CHO cells; assay type: cell-based
T3 sequence (P35462 whole entry): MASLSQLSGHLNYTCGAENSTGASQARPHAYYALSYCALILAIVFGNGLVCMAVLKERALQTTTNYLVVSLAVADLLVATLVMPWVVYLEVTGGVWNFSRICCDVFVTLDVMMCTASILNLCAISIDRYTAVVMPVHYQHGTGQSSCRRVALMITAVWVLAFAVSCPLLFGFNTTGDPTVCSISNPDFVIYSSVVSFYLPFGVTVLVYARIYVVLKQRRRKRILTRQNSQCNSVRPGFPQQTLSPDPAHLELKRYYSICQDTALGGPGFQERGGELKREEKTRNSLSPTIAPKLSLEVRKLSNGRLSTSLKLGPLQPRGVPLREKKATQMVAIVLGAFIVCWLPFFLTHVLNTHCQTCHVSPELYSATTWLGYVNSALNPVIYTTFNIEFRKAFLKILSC

[6] = biological target: D(1A) dopamine receptor (Sus scrofa, UniProt P50130); experiment: Displacement of [3H]SCH23390 from dopamine D1 receptor in pig striatal membranes; assay type: cell membranes, Striatum, Membrane
Chain of D(1A) dopamine receptor (P50130 whole entry): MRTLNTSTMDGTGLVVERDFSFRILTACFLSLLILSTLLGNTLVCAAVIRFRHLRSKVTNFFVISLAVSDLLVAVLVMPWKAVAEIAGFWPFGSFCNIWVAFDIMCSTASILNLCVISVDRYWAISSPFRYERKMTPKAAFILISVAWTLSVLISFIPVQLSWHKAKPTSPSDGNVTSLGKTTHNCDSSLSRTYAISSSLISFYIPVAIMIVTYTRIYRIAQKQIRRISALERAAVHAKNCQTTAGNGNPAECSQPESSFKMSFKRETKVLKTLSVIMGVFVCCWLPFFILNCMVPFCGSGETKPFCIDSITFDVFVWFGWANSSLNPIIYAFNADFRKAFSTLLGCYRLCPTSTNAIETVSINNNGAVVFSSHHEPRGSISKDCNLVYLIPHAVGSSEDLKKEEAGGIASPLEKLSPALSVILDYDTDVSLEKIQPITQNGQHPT

[7] = biological target: T2, D(2) dopamine receptor; experiment: Displacement of [3H]Spiperone from human dopamine D2 long receptor expressed in CHO cells; assay type: cell-based
[8] = species: Homo sapiens; experiment: Selectivity ratio of Ki for wild type human dopamine D3 receptor to Ki for human dopamine D3 receptor V2.61F mutant
[9] = species: Homo sapiens; experiment: Selectivity ratio of Ki for wild type human dopamine D3 receptor to Ki for human dopamine D3 receptor F6.52W mutant
[10] = biological target: T3, D(3) dopamine receptor; experiment: Agonist activity at human dopamine D3 receptor expressed in dhfr deficient CHO cells assessed as [3H]thymidine incorporation; assay type: functional, cell-based

Row | SMILES | Ki [1] [nM] | Ki [2] [nM] | Ki [3] [nM] | Ki [4] [nM] | Ki [5] [nM] | Ki [6] [nM] | Ki [7] [nM] | Ratio Ki [8] | Ratio Ki [9] | Activity [10]
1 | COc1ccccc1N1CCN(CCCCNC(=O)c2cc3ccccc3s2)CC1 | 350 | 14 | – | – | – | – | – | – | – | –
2 | Cc1ccc(C)c(C(=O)CCCN2CCC(O)(c3ccc(Cl)cc3)CC2)c1 | 690 | 35 | 61 | 43 | 73 | 3800 | 15 | – | – | –
3 | O=C(CCCN1CCC(O)(c2ccc(Cl)cc2)CC1)c1cc2ccc1CCc1ccc(cc1)CC2 | 2400 | – | 39 | – | 17 | 9800 | – | – | – | –
4 | O=C(CCCN1CCN(c2cc3ccc2CCc2ccc(cc2)CC3)CC1)c1ccc(F)cc1 | 450 | 71 | 120 | 22 | 9.9 | 590 | 19 | – | – | –
5 | COc1ccccc1N1CCN(CCCCNC(=O)c2cc3ccc2CCc2ccc(cc2)CC3)CC1 | 2200 | 4.2 | 11 | 18 | 0.49 | 680 | 24 | – | – | –
6 | COc1ccccc1N1CCN(CCCCNC(=O)c2cc(C)ccc2C)CC1 | 1500 | 14 | 23 | 17 | 4.7 | 2100 | 22 | – | – | –
7 | Cc1ccc(C)c(C2(O)CCN(CCCC(=O)c3ccc(F)cc3)CC2)c1 | 110 | 1.3 | 20 | 6.5 | 27 | 19 | 3.4 | – | – | –
8 | O=C(CCCN1CCC(O)(c2cc3ccc2CCc2ccc(cc2)CC3)CC1)c1ccc(F)cc1 | 19 | 2.9 | 0.72 | 3.6 | 53 | 100 | 4.8 | – | – | –
9 | Cc1ccc(C)c(N2CCN(CCCCNC(=O)c3cc4ccccc4s3)CC2)c1 | 1500 | 20 | 300 | 65 | 2.5 | 2400 | 84 | 40 | 38 | –
10 | O=C(CCCN1CCN(c2ccc(Cl)cc2)CC1)c1cc2ccc1CCc1ccc(cc1)CC2 | 1700 | 180 | 120 | 440 | 410 | 5400 | 620 | – | – | –
11 | O=C(CCCN1CCN(c2ccc(Cl)cc2)CC1)c1ccc(F)cc1 | 440 | 13 | 7.6 | 61 | – | 340 | 63 | – | – | –
12 | Cc1ccc(C)c(N2CCN(CCCC(=O)c3ccc(F)cc3)CC2)c1 | 850 | 3.2 | 17 | 16 | 76 | 210 | 13 | – | – | –
13 | O=C(CCCN1CCC(O)(c2cc3ccc2CCc2ccc(cc2)CC3)CC1)c1cc2ccc1CCc1ccc(cc1)CC2 | 1200 | 2800 | 30 | – | 38 | 4900 | – | – | – | –
14 | O=C(NCCCCN1CCN(c2cc3ccc2CCc2ccc(cc2)CC3)CC1)c1cc2ccc1CCc1ccc(cc1)CC2 | 8200 | 840 | 170 | 48 | 4 | 7800 | 32 | – | – | –
15 | O=C(NCCCCN1CCN(c2cc3ccc2CCc2ccc(cc2)CC3)CC1)c1cc2ccccc2s1 | 1000 | 490 | 880 | 150 | 1.6 | 4000 | 83 | 24 | 2.4 | inactive
16 | O=C(CCCN1CCC(O)(c2ccc(Cl)cc2)CC1)c1ccc(F)cc1 [HALOPERIDOL] | – | 6.8 | – | – | – | – | – | – | – | –
17 | Cc1ccc(C)c(C(=O)NCCCCN2CCN(c3cc(C)ccc3C)CC2)c1 | 3600 | 29 | 220 | 86 | 28 | 3200 | 99 | – | – | –
18 | Cc1ccc(C)c(C(=O)CCCN2CCC(O)(c3cc(C)ccc3C)CC2)c1 | 1700 | 11 | 30 | – | 280 | 590 | – | – | – | –
